Measurements: patent US11999727B2 (Tango Therapeutics, Inc., priority 2020, dated 2024)

Legend:
PRMT5 [1] = target: T1, PRMT5 (Homo sapiens, UniProt O14744); experiment: PRMT5 biochemical IC50 assay with MTA as cofactor; settings: PRMT5, MTA as cofactor; read-out: MTA IC50
T1 construct: purchased Viva (custom protein)

PRMT5 [2] = target: T1, PRMT5; experiment: PRMT5 biochemical IC50 assay with SAM as cofactor; settings: PRMT5, SAM as cofactor; read-out: SAM IC50
[3] = tested on: HAP1 MTAP-deleted cell line; experiment: Viability assay, MTAP-deleted cell line; type: cell-based; settings: Homo sapiens, HAP1, viability assay, HAP1 MTAP-deleted; read-out: HAP1 MTAP deleted viability
Description: Table 1 additionally indicates IC50 values in a viability assay for the MTAP-deleted cell line (column 10), indicating the effect of treatment with compound on cell survival.

PRMT5 [4] = target: T1, PRMT5; experiment: PRMT5 biochemical IC50 assay with no cofactor; settings: PRMT5, no cofactor; read-out: No Cofactor/rel IC50
Description: Table 1 indicates IC50 values (μM) against PRMT5 for exemplary compounds in the presence of SAM as cofactor, with no cofactor, and with MTA as cofactor, respectively (columns 4-6). […] Ki values can be calculated from the IC50 values as described in the Examples section. As detailed in the Examples section, for the assay performed in the presence of SAM, IC50=Ki×1.5 (Ki=IC50/1.5).

[5] = tested on: HAP1 MTAP-deleted cell line; experiment: SDMA in-cell western assay, HAP1 MTAP-deleted; type: cell-based; settings: for IC50: Homo sapiens, HAP1, SDMA in-cell western, HAP1 MTAP-deleted, read-out: HAP1 MTAP deleted IC50; for MTAP intact/deleted ratio: IC50 ratio HAP1 MTAP-intact / HAP1 MTAP-deleted, SDMA in-cell western
Method in brief: (§1)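 Compounds were tested in HAP1 cells differing only in MTAP status (endogenous expression versus null). Cellular SDMA levels were then measured by in-cell western, giving an IC50 in each background.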

[6] = tested on: HAP1 MTAP-intact cell line; experiment: SDMA in-cell western assay, HAP1 MTAP-intact; type: cell-based; settings: Homo sapiens, HAP1, SDMA in-cell western, HAP1 MTAP-intact; read-out: MTAP HAP1 intact IC50
Method in brief: as §1

T1 sequence (O14744 whole entry): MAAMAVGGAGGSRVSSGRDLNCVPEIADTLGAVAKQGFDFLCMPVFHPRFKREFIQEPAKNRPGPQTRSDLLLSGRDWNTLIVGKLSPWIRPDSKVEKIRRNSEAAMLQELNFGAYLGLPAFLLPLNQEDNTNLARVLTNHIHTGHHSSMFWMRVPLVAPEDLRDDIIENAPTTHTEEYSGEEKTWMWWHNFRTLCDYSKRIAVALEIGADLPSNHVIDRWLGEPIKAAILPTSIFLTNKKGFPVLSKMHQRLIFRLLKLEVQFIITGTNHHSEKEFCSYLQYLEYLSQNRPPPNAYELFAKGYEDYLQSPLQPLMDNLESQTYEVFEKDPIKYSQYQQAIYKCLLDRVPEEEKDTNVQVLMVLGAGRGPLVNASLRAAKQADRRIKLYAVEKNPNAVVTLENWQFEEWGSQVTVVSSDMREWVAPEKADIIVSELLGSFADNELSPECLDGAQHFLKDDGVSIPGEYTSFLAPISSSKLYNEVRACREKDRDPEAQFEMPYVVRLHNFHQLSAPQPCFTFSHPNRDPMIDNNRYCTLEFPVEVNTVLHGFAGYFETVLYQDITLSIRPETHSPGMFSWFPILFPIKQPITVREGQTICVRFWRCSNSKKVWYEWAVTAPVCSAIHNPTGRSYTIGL
T1 sequence (Q9BQA1 whole entry partner): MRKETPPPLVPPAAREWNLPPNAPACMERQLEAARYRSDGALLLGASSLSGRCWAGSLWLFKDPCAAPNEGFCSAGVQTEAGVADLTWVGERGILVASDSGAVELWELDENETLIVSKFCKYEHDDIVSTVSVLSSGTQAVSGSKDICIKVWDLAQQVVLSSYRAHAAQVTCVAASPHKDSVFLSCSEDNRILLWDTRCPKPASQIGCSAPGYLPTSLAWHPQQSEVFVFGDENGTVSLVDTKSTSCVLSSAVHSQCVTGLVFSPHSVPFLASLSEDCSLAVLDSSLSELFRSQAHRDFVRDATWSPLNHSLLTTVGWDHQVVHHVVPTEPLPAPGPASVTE

Row | SMILES | IC50 (PRMT5 [1]) [nM] | IC50 (PRMT5 [2]) [nM] | IC50 [3] [nM] | IC50 (PRMT5 [4]) [nM] | IC50 [5] [nM] | MTAP intact/deleted ratio [5] | IC50 [6] [nM]
1 | COc1ncc(NC(=O)C(=O)N2C[C@@H](C)CC[C@@H]2c2ccc(-c3cncs3)cc2)cc1C(N)=O (single isomer, unassigned) [Compound 842, 2-methoxy-5-(2-(5-methyl-2-(4-(thiazol-5-yl)phenyl)piperidin-1-yl)-2-oxoacetamido)nicotinamide] | > 500 | > 500 | > 10000 | > 500 | > 1000 | B (an IC50 ratio greater than or equal to 3 fold but lower than 10 fold) | > 1000
2 | CNC(=O)c1ccc([C@@H]2CC[C@@H](C)CN2C(=O)C(=O)Nc2cnc(OC)c(C(N)=O)c2)s1 (single isomer, unassigned) [Compound 843] | > 500 | > 500 | > 10000 | > 500 | > 1000 | B (an IC50 ratio greater than or equal to 3 fold but lower than 10 fold) | > 1000
3 | COc1ncc(NC(=O)C(=O)N2C[C@H](C)CC[C@H]2c2ccc(C(N)=O)s2)cc1C(N)=O (single isomer, unassigned) [Compound 844] | > 500 | > 500 | > 10000 | > 500 | > 1000 | C (an IC50 ratio of less than 3 fold) | > 1000
4 | CCc1cc(NC(=O)C(=O)N2C[C@@H](C)CC[C@@H]2c2ccc(C(N)=O)s2)cnc1N (single isomer, unassigned) [Compound 845] | > 500 | > 500 | > 10000 | > 500 | > 1000 | B (an IC50 ratio greater than or equal to 3 fold but lower than 10 fold) | > 1000
5 | Cc1cc(NC(=O)C(=O)N2C[C@H](C)CC[C@H]2c2cc(F)c(F)c(Cl)c2)cnc1N (single isomer, unassigned) [Compound 847] | > 500 | > 500 | > 10000 | > 500 | > 1000 | C (an IC50 ratio of less than 3 fold) | > 1000
6 | Cc1cc(NC(=O)C(=O)N2C[C@H](C)CC[C@H]2c2ccc(N)nc2)cnc1N (single isomer, unassigned) [Compound 848] | < 50 | 50 to 500 | < 1000 | < 50 | < 100 | A (an IC50 ratio greater than or equal to 10 fold) | 100 to 1000
7 | CNC(=O)c1ccc([C@@H]2CC[C@@H](C)CN2C(=O)C(=O)Nc2cnc(N)c(C)c2)s1 (single isomer, unassigned) [Compound 849] | > 500 | > 500 | > 10000 | > 500 | > 1000 | C (an IC50 ratio of less than 3 fold) | > 1000
8 | COc1ncc(NC(=O)C(=O)N2C[C@@H](C)CC[C@@H]2c2ccc(NS(C)(=O)=O)cc2)cc1C(N)=O (single isomer, unassigned) [Compound 850] | > 500 | > 500 | > 10000 | > 500 | > 1000 | C (an IC50 ratio of less than 3 fold) | > 1000
9 | CCc1cc(NC(=O)C(=O)N2C[C@@H](C)CC[C@@H]2c2ccc(N)nc2)cnc1N (single isomer, unassigned) [Compound 851] | < 50 | 50 to 500 | < 1000 | < 50 | < 100 | A (an IC50 ratio greater than or equal to 10 fold) | 100 to 1000
10 | CNc1nc2cc([C@H]3CC[C@H](C)CN3C(=O)C(=O)Nc3cnc(N)c(C)c3)ccc2s1 (single isomer, unassigned) [Compound 852] | < 50 | 50 to 500 | < 1000 | < 50 | < 100 | A (an IC50 ratio greater than or equal to 10 fold) | 100 to 1000
11 | CNc1nc2cc([C@@H]3CC[C@@H](C)CN3C(=O)C(=O)Nc3cnc(N)c(C)c3)ccc2s1 (single isomer, unassigned) [Compound 855] | > 500 | > 500 | > 10000 | > 500 | > 1000 | C (an IC50 ratio of less than 3 fold) | > 1000
12 | CCc1cc(NC(=O)C(=O)N2C[C@H](C)CC[C@H]2c2ccc(N)nc2)cnc1N (single isomer, unassigned) [Compound 856] | > 500 | > 500 | > 10000 | > 500 | > 1000 | B (an IC50 ratio greater than or equal to 3 fold but lower than 10 fold) | > 1000
13 | Cc1cc(NC(=O)C(=O)N2C[C@@H](C)CC[C@@H]2c2cc(F)c(F)c(Cl)c2)cnc1N (single isomer, unassigned) [Compound 857] | < 50 | 50 to 500 | 1000 to 10000 | 50 to 500 | < 100 | A (an IC50 ratio greater than or equal to 10 fold) | > 1000
14 | COc1ncc(NC(=O)C(=O)N2C[C@H](C)CC[C@H]2c2ccc(NS(C)(=O)=O)cc2)cc1C(N)=O (single isomer, unassigned) [Compound 858] | < 50 | 50 to 500 | 1000 to 10000 | < 50 | < 100 | A (an IC50 ratio greater than or equal to 10 fold) | > 1000
15 | CNC(=O)c1ccc([C@H]2CC[C@H](C)CN2C(=O)C(=O)Nc2cnc(N)c(C)c2)s1 (single isomer, unassigned) [Compound 859] | < 50 | 50 to 500 | < 1000 | < 50 | < 100 | A (an IC50 ratio greater than or equal to 10 fold) | 100 to 1000
16 | Cc1cc(NC(=O)C(=O)N2C[C@@H](C)CC[C@@H]2c2ccc(N)nc2)cnc1N (single isomer, unassigned) [Compound 860] | > 500 | > 500 | > 10000 | > 500 | > 1000 | B (an IC50 ratio greater than or equal to 3 fold but lower than 10 fold) | > 1000
17 | CNc1nc2cc([C@H]3CC[C@H](C)CN3C(=O)C(=O)Nc3cncc(C(N)=O)c3)ccc2s1 (single isomer, unassigned) [Compound 862] | > 500 | > 500 | > 10000 | > 500 | > 1000 | B (an IC50 ratio greater than or equal to 3 fold but lower than 10 fold) | > 1000
18 | CNc1nc2cc([C@H]3CC[C@H](C)CN3C(=O)C(=O)Nc3cnc(OC)c(C(N)=O)c3)ccc2s1 (single isomer, unassigned) [Compound 863] | < 50 | 50 to 500 | < 1000 | < 50 | < 100 | A (an IC50 ratio greater than or equal to 10 fold) | > 1000
19 | CNc1ccc([C@@H]2CC[C@@H](C)CN2C(=O)C(=O)Nc2cnc(N)c(C)c2)cn1 (single isomer, unassigned) [Compound 864] | < 50 | 50 to 500 | < 1000 | < 50 | < 100 | B (an IC50 ratio greater than or equal to 3 fold but lower than 10 fold) | 100 to 1000
20 | CCc1cc(NC(=O)C(=O)N2C[C@H](C)CC[C@H]2c2ccc(NC)nc2)cnc1N (single isomer, unassigned) [Compound 865] | < 50 | 50 to 500 | < 1000 | < 50 | < 100 | A (an IC50 ratio greater than or equal to 10 fold) | 100 to 1000
21 | CCc1cc(NC(=O)C(=O)N2C[C@H](C)CC[C@H]2c2ccc(NS(C)(=O)=O)cc2)cnc1N (single isomer, unassigned) [Compound 866] | > 500 | > 500 | > 10000 | > 500 | > 1000 | C (an IC50 ratio of less than 3 fold) | > 1000
22 | C[C@@H]1CC[C@@H](c2cc3[nH]ncc3s2)N(C(=O)C(=O)Nc2cncc(C(N)=O)c2)C1 (single isomer, unassigned) [Compound 868, 5-(2-(5-methyl-2-(1H-thieno[3,2-c]pyrazol-5-yl)piperidin-1-yl)-2-oxoacetamido)nicotinamide] | > 500 | > 500 | > 10000 | > 500 | > 1000 | C (an IC50 ratio of less than 3 fold) | > 1000
